Tests used:
[1] = test system: HT-144; experiment: Xenograft tumor growth inhibition by U3-1287, HT-144; type: in vivo; conditions: HT-144 xenograft in mice, Melanoma; tumor volumes vs control mice
Protocol: (§1) The HRG biomarker was identified by analysing the anti-tumor activity of the anti-HER3 antibody U3-1287 on various human cancer xenografts in vivo and analysis of the expression of HRG of these cell lines in vitro. Human tumor cell lines of various indications were grown as xenografts in mice and treated with the […] antibody U3-1287 for several weeks. Inhibition of tumor growth was analysed by comparing the tumor volumes of control mice and mice treated with U3-1287. Human tumor cell lines were grown in vitro and analysed for HRG RNA expression by PCR.

[2] = test system: MKN-45; experiment: Xenograft tumor growth inhibition by U3-1287, MKN-45; type: in vivo; conditions: MKN-45 xenograft in mice, Gastric; tumor volumes vs control mice
Protocol: as §1

[3] = test system: BxPC3; experiment: Xenograft tumor growth inhibition by U3-1287, BxPC3; type: in vivo; conditions: BxPC3 xenograft in mice, Pancreas; tumor volumes vs control mice
Protocol: as §1

[4] = test system: Sum225; experiment: Xenograft tumor growth inhibition by U3-1287, Sum225; type: in vivo; conditions: Sum225 xenograft in mice, BC FISH + ve; tumor volumes vs control mice
Protocol: as §1

[5] = test system: A375; experiment: Xenograft tumor growth inhibition by U3-1287, A375; type: in vivo; conditions: A375 xenograft in mice, Melanoma; tumor volumes vs control mice
Protocol: as §1

[6] = test system: NCI-H441; experiment: Xenograft tumor growth inhibition by U3-1287, NCI-H441; type: in vivo; conditions: NCI-H441 xenograft in mice, NSCLC; tumor volumes vs control mice
Protocol: as §1

[7] = test system: A549; experiment: Xenograft tumor growth inhibition by U3-1287, A549; type: in vivo; conditions: A549 xenograft in mice, NSCLC; tumor volumes vs control mice
Protocol: as §1

[8] = test system: MCF-7; experiment: Xenograft tumor growth inhibition by U3-1287, MCF-7; type: in vivo; conditions: MCF-7 xenograft in mice, BC FISH + ve; tumor volumes vs control mice
Protocol: as §1

[9] = test system: BT474; experiment: HER3 phosphorylation by Western blot, BT474; type: cell-based, human
From the text: FIG. 15 depicts Western blots showing that U3-1287 can block […] basal HER3 phosphorylation.

[10] = test system: HCC 1569; experiment: Xenograft tumor growth inhibition by U3-1287, HCC 1569; type: in vivo; conditions: HCC 1569 xenograft in mice, BC FISH + ve; tumor volumes vs control mice
Protocol: as §1

[11] = test system: NC-H1975; experiment: Xenograft tumor growth inhibition by U3-1287, NC-H1975; type: in vivo; conditions: NC-H1975 xenograft in mice, NSCLC; tumor volumes vs control mice
Protocol: as §1

[12] = test system: A549; experiment: Reduction of phospho-HER3 and phospho-AKT levels by Western blotting, A549; type: cell-based, human; conditions: A549, endogenously express heregulin
Protocol: (§2) FIG. 14 depicts efficacy determined in vitro by measuring reduction of phospho-HER3 and phospho-AKT levels by Western blotting.
(§3) U3-1287 efficacy was determined in vitro by measuring reduction of phospho-HER3 and phospho-AKT levels.

[13] = test system: ZR75-1; experiment: Xenograft tumor growth inhibition by U3-1287, ZR75-1; type: in vivo; conditions: ZR75-1 xenograft in mice, BC FISH + ve; tumor volumes vs control mice
Protocol: as §1

[14] = test system: BT474; experiment: Xenograft tumor growth inhibition by U3-1287, BT474; type: in vivo; conditions: BT474 xenograft in mice, BC FISH + ve; tumor volumes vs control mice
Protocol: as §1

[15] = test system: HT-29; experiment: Xenograft tumor growth inhibition by U3-1287, HT-29; type: in vivo; conditions: HT-29 xenograft in mice, Colon; tumor volumes vs control mice
Protocol: as §1

[16] = test system: MDA-MB453; experiment: Xenograft tumor growth inhibition by U3-1287, MDA-MB453; type: in vivo; conditions: MDA-MB453 xenograft in mice, BC FISH + ve; tumor volumes vs control mice
Protocol: as §1

[17] = Phase 1 monotherapy study of patritumab
Protocol: A higher maintenance dose level of 18 mg/kg was also included to accommodate the possible effect of reduced tumor tissue penetration in the clinical setting relative to animal models.

[18] = test system: FaDu; experiment: Xenograft tumor growth inhibition by U3-1287, FaDu; type: in vivo; conditions: FaDu xenograft in mice, Head&Neck; tumor volumes vs control mice
Protocol: as §1

[19] = test system: CaOV3; experiment: Reduction of phospho-HER3 and phospho-AKT levels by Western blotting, CaOV3; type: cell-based, human; conditions: CaOV3, no basal HER3 activation, stimulated with exogenous heregulin
Protocol: as §2, §3

[20] = test system: Calu-3; experiment: Xenograft tumor growth inhibition by U3-1287, Calu-3; type: in vivo; conditions: Calu-3 xenograft in mice, NSCLC; tumor volumes vs control mice
Protocol: as §1

Substance: patritumab: anti-HER3 antibody; U3-1287 corresponds to patritumab
- In vivo efficacy (SA) [1]: No
- In vivo efficacy (SA) [2]: Yes
- In vivo efficacy (SA) [3]: Yes
- In vivo efficacy (SA) [4]: No
- In vivo efficacy (SA) [5]: No
- In vivo efficacy (SA) [6]: No
- In vivo efficacy (SA) [7]: Yes
- In vivo efficacy (SA) [8]: No
- efficacy on HER3 phosphorylation ([9]; BT474 HRG: exogenously added heregulin): this could be overcome by exogenously added heregulin
- efficacy on HER3 phosphorylation ([9]; BT474 basal: basal HER3 phosphorylation, no heregulin expression): no efficacy
- In vivo efficacy (SA) [10]: No
- In vivo efficacy (SA) [11]: Yes
- Basal HER3 phosphorylation (phospho-HER3 and phospho-AKT levels) [12]: Basal HER3 phosphorylation could be blocked
- In vivo efficacy (SA) [13]: No
- In vivo efficacy (SA) [14]: No
- In vivo efficacy (SA) [15]: Yes
- In vivo efficacy (SA) [16]: No
- maximum tolerated dose ([17]; Phase 1 study): not reached
- dose limiting toxicity ([17]; monotherapy Phase 1 study): lack of dose limiting toxicity
- In vivo efficacy (SA) [18]: Yes
- HER3 phosphorylation (phospho-HER3 and phospho-AKT levels) [19]: could be blocked
- In vivo efficacy (SA) [20]: Yes

From patent US12497666B2, “Nucleic acid biomarker and use thereof” (Daiichi Sankyo Co., Ltd., priority 2013, dated 2025)
